Laboratory results from patent US20150210624A1, “DEUTERATED 4-HYDROXYBUTYRIC ACID ANALOGS” (Concert Pharmaceuticals, Inc., priority 2012, published 2015).
Where a name gives a salt, the structure may show the parent alone.

Tests used:
[1] = In vivo pharmacokinetic study in rats, oral dosing (Example 7); details: rat, 200 mg/kg PO; for AUC(0-inf) / Cmax / Tmax / half-life: in vivo, mean; for AUC0-∞ value relative to 4-hydroxybutyric acid, sodium salt: sodium salts
Experimental: In a separate study, the pharmacokinetics of exemplary compounds IV-a, IV-b and IV-d was determined by comparison with 4-hydroxybutyric acid by dosing the compounds in rats orally. The study design was the same as for Example 6, except that sampling time points were as follows: predose, 5 min, 15 min, 30 min, 1 hour, 2 hours, 3 hours, 4 hours, and 5 hours (the 5 hour levels were not included in the for PK calculations). The results of the in vivo studies are disclosed in the following table (Table 3): […]

[2] = In vivo pharmacokinetic study in rats, IV and PO dosing (Example 6); details: rat; for AUC(0-inf) / clearance / concentration at 2 hr / half-life / Vd / Cmax / Tmax / concentration at 4 hr / bioavailability: plasma; for Vd: read-out: Vz; for concentration at 4 hr: Cmin at 4 hr; for bioavailability: 200 mg/kg, PO vs IV AUC0-∞
Experimental: The pharmacokinetics of exemplary compounds was determined by comparison with 4-hydroxybutyric acid by dosing the compounds in rats according to the following study design and sampling procedure.
The results of the in vivo studies are disclosed in the following table (Table 2): […]

[3] = in humans; cited from earlier work
[4] = 200 mg/kg IV, mean, Cmin at 2 hr
[5] = 200 mg/kg IV, mean, calculated up to 2 hr
[6] = 200 mg/kg PO, mean, calculated up to 4 hr

| Compound | AUC(0-inf) [1] | Cmax [1] | Tmax [1] | half-life [1] | AUC0-∞ fold versus 4-hydroxybutyric acid, sodium salt [1] | Cmax fold versus 4-hydroxybutyric acid, sodium salt [1] | AUC0-∞ value relative to 4-hydroxybutyric acid, sodium salt [1] | AUC(0-inf) ([2]; 200 mg/kg IV, mean) | clearance ([2]; 200 mg/kg IV, mean) | concentration at 2 hr [2, 4] | half-life [2, 5] | Vd ([2]; 200 mg/kg IV, mean) | AUC(0-inf) ([2]; 200 mg/kg PO, mean) | Cmax ([2]; 200 mg/kg PO, mean) | Tmax ([2]; 200 mg/kg PO, mean) | concentration at 4 hr ([2]; 200 mg/kg PO, mean) | half-life [2, 6] | bioavailability [2] | AUC0-∞ fold versus 4-hydroxybutyric acid, sodium salt ([2]; 200 mg/kg PO) | also measured |
| --- | --- | --- | --- | --- | --- | --- | --- | --- | --- | --- | --- | --- | --- | --- | --- | --- | --- | --- | --- | --- |
| [2H]C([2H])(O)CC([2H])([2H])C(=O)[O-].[Na+] [IV-b, sodium salt, Sodium 2,2,4,4-d4-4-hydroxybutanoate] | 407 µg·h/mL | 201 µg/mL | 90 min | 27.6 min | (2.5X) | (2.1X) | considerably increased | 651 µg·h/mL | 5 mL/min/kg | 76 µg/mL | 37.8 min | 0.3 L/kg | 260 µg·h/mL | 151 µg/mL | 37.8 min | 5 µg/mL | 56.4 min | 40% | (+1.5X) | pharmacokinetic stability relative to 4-hydroxybutyric acid, sodium salt ([2]; from AUC0-∞ and t1/2 following IV administration): considerably increased |
| [2H]C([2H])(O)C([2H])([2H])C([2H])([2H])C(=O)O [IV-d, sodium salt] | 404 µg·h/mL | 188 µg/mL | 100 min | 27.6 min | (2.4X) | (2.0X) | considerably increased |  |  |  |  |  |  |  |  |  |  |  |  |  |
| O=C(O)CCCO [4-hydroxybutyric acid, sodium salt, sodium salt of 4-hydroxybutyric acid, reference compound] | 165 µg·h/mL | 94 µg/mL | 47.4 min | 60.6 min |  |  |  | 427 µg·h/mL | 8 mL/min/kg |  | 15.6 min | 0.2 L/kg | 170 µg·h/mL | 150 µg/mL | 30 min | 2 µg/mL | 36.6 min | 40% |  | half life [3]: 30 to 60 min; Cmin [2, 4]: 8′ ug/mL |
| [2H]C([2H])(CCO)C(=O)[O-].[Na+] [sodium 2,2-dideutero-4-hydroxybutanoate] |  |  |  |  |  |  |  | 476 µg·h/mL | 7 mL/min/kg | 19 µg/mL | 19.8 min | 0.2 L/kg | 193 µg·h/mL | 153 µg/mL | 37.8 min | 1 µg/mL | 35.4 min | 41% | (+1.1X) |  |
| [2H]C([2H])(O)CCC(=O)O [IV-a, sodium salt] | 335 µg·h/mL | 168 µg/mL | 70.2 min | 28.8 min | (2.0X) | (1.8X) | considerably increased |  |  |  |  |  |  |  |  |  |  |  |  |  |
